Experimental data reported in ChEMBL document CHEMBL1201862, “PubChem BioAssay data set” (2004).
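The compound was tested at five concentrations on cells cultured in 96-well plates, with a 48-hour exposure period. Here, GI50 denotes the concentration required for 50% inhibition of growth.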 Activity calls are given as the source filed them. Cut-off read from the data, not from the text of the source: active = GI50 up to about 1.1 µM and inactive = higher.

Key:
Test in all cases: inhibition of tumour cell growth, NCI panel, 48 h
[1] = system: HCT-116
[2] = system: A549
[3] = system: SF-268
[4] = system: NCI-H226
[5] = system: CAKI-1
[6] = system: MDA-MB-231
[7] = system: SK-OV-3
[8] = system: BT-549
[9] = system: MDA-N
[10] = system: KM12
[11] = system: EKVX
[12] = system: ACHN
[13] = system: A498
[14] = system: DU-145
[15] = system: HT-29
[16] = system: SR
[17] = system: OVCAR-4
[18] = system: SF-295
[19] = system: NCI/ADR-RES

| SMILES | GI50 [1] | GI50 [2] | GI50 [3] | GI50 [4] | GI50 [5] | GI50 [6] | GI50 [7] | GI50 [8] | GI50 [9] | GI50 [10] | GI50 [11] | GI50 [12] | GI50 [13] | GI50 [14] | GI50 [15] | GI50 [16] | GI50 [17] | GI50 [18] | GI50 [19] |
| --- | --- | --- | --- | --- | --- | --- | --- | --- | --- | --- | --- | --- | --- | --- | --- | --- | --- | --- | --- |
| CCOC(=O)NC(NCC(O)c1ccccc1)(C(F)(F)F)C(F)(F)F (stereo not drawn) | > 100 µM (inactive) | > 100 µM (inactive) | > 100 µM (inactive) | > 100 µM (inactive) | > 100 µM (inactive) | > 100 µM (inactive) | > 100 µM (inactive) | > 100 µM (inactive) | > 100 µM (inactive) | > 100 µM (inactive) | > 100 µM (inactive) | > 100 µM (inactive) | > 100 µM (inactive) | > 100 µM (inactive) | > 100 µM (inactive) | > 100 µM (inactive) | – | – | – |
| CN1C(=O)CN2C(Cl)(Cl)C2(c2ccccc2F)c2cc([N+](=O)[O-])ccc21 (stereo not drawn) | 31.7 µM (inactive) | – | 51.1 µM (inactive) | 16.2 µM (inactive) | > 100 µM (inactive) | – | > 10 µM (inactive) | – | – | 38.7 µM (inactive) | 30.4 µM (inactive) | 41.5 µM (inactive) | – | – | 39.1 µM (inactive) | 33 µM (inactive) | > 100 µM (inactive) | 80.4 µM (inactive) | – |
| CCOC(=O)c1csc(NC(=O)CCN2CCOCC2)n1 | – | > 100 µM (inactive) | – | – | 32 µM (inactive) | > 100 µM (inactive) | > 100 µM (inactive) | – | 59.7 µM (inactive) | – | 77.3 µM (inactive) | 44.5 µM (inactive) | > 100 µM (inactive) | 44.7 µM (inactive) | 36.5 µM (inactive) | 66.2 µM (inactive) | > 100 µM (inactive) | > 100 µM (inactive) | 48.5 µM (inactive) |
| CCc1ccccc1NC(=O)/C=C/c1ccccc1 | > 100 µM (inactive) | > 100 µM (inactive) | > 100 µM (inactive) | > 100 µM (inactive) | > 100 µM (inactive) | > 100 µM (inactive) | > 100 µM (inactive) | > 100 µM (inactive) | > 100 µM (inactive) | > 100 µM (inactive) | > 100 µM (inactive) | > 100 µM (inactive) | > 100 µM (inactive) | > 100 µM (inactive) | > 100 µM (inactive) | > 100 µM (inactive) | > 100 µM (inactive) | > 100 µM (inactive) | – |
| Cc1cc(C)c2cc(N)c(Cl)nc2n1 | > 100 µM (inactive) | > 100 µM (inactive) | > 100 µM (inactive) | > 100 µM (inactive) | > 100 µM (inactive) | > 100 µM (inactive) | > 100 µM (inactive) | > 100 µM (inactive) | > 100 µM (inactive) | > 100 µM (inactive) | > 100 µM (inactive) | > 100 µM (inactive) | – | > 100 µM (inactive) | 63.5 µM (inactive) | – | – | > 100 µM (inactive) | > 100 µM (inactive) |
| C#CCNC(CSSCC(N)C(=O)O)C(=O)O (stereo not drawn) | > 100 µM (inactive) | > 100 µM (inactive) | > 100 µM (inactive) | > 100 µM (inactive) | > 100 µM (inactive) | > 100 µM (inactive) | > 100 µM (inactive) | – | > 100 µM (inactive) | > 100 µM (inactive) | > 100 µM (inactive) | > 100 µM (inactive) | > 100 µM (inactive) | > 100 µM (inactive) | > 100 µM (inactive) | – | > 100 µM (inactive) | > 100 µM (inactive) | > 100 µM (inactive) |
| CC(/C=C/c1ncccc1OCCCCCC(=O)O)=N\NC1=NCCN1 | > 100 µM (inactive) | > 100 µM (inactive) | > 100 µM (inactive) | > 100 µM (inactive) | > 100 µM (inactive) | – | > 100 µM (inactive) | – | – | > 100 µM (inactive) | > 100 µM (inactive) | > 100 µM (inactive) | – | – | > 100 µM (inactive) | > 100 µM (inactive) | > 100 µM (inactive) | > 100 µM (inactive) | – |
| Cc1ccc(-c2cs/c(=N\c3c(C)n(C)n(-c4ccccc4)c3=O)n2CCO)cc1 | – | > 100 µM (inactive) | > 100 µM (inactive) | > 100 µM (inactive) | > 100 µM (inactive) | > 100 µM (inactive) | > 100 µM (inactive) | 74.3 µM (inactive) | > 100 µM (inactive) | > 100 µM (inactive) | 84.7 µM (inactive) | 46.5 µM (inactive) | 70 µM (inactive) | – | – | > 100 µM (inactive) | > 100 µM (inactive) | > 100 µM (inactive) | 65.6 µM (inactive) |
| CSC1=N/C(=C\c2ccc(C)cc2)C(=O)N1CN1CCOCC1 | 35.7 µM (inactive) | 92.3 µM (inactive) | 47.6 µM (inactive) | 31.3 µM (inactive) | – | > 100 µM (inactive) | > 100 µM (inactive) | – | > 100 µM (inactive) | 91.8 µM (inactive) | 47.4 µM (inactive) | 35.4 µM (inactive) | 98.2 µM (inactive) | 76 µM (inactive) | – | 69.3 µM (inactive) | 0.622 µM (active) | > 100 µM (inactive) | 19.5 µM (inactive) |
| O=C1N/C(=N\C2CCCCC2)C2(CCN(CCCC3(c4ccc(F)cc4)OCCO3)CC2)N1c1ccccc1 | 12.2 µM (inactive) | 21.4 µM (inactive) | 21.5 µM (inactive) | 23.1 µM (inactive) | 22.8 µM (inactive) | – | 21 µM (inactive) | 4.61 µM (inactive) | 15.4 µM (inactive) | 18 µM (inactive) | 16.8 µM (inactive) | 14.8 µM (inactive) | – | 17 µM (inactive) | 16.6 µM (inactive) | 13.9 µM (inactive) | 18.5 µM (inactive) | 19.9 µM (inactive) | 24.3 µM (inactive) |
| CC(=O)Nc1ccc2c3c(cc(O)c2c1)N(C(=O)CCCC(=O)N1CC(CCl)c2c1cc(O)c1cc(NC(C)=O)ccc21)CC3CCl (stereo not drawn) | < 0.01 µM (active) | < 0.01 µM (active) | < 0.01 µM (active) | < 0.01 µM (active) | < 0.01 µM (active) | < 0.01 µM (active) | < 0.011 µM (active) | 0.011 µM (active) | – | 0.0132 µM (active) | 0.0423 µM (active) | < 0.01 µM (active) | < 0.01 µM (active) | < 0.01 µM (active) | 0.0125 µM (active) | < 0.01 µM (active) | 0.0238 µM (active) | < 0.01 µM (active) | 0.0828 µM (active) |
| N#C/C(N)=C(C#N)/N=C/N | > 100 µM (inactive) | > 100 µM (inactive) | > 100 µM (inactive) | – | – | > 100 µM (inactive) | > 100 µM (inactive) | – | > 100 µM (inactive) | > 100 µM (inactive) | > 100 µM (inactive) | > 100 µM (inactive) | – | > 100 µM (inactive) | > 100 µM (inactive) | > 100 µM (inactive) | > 100 µM (inactive) | > 100 µM (inactive) | > 100 µM (inactive) |
| COc1ccc(C2S/C(=C\c3ccc(O)cc3)C(=O)N2NC(=O)Cc2ccccc2)cc1 (stereo not drawn) | > 100 µM (inactive) | > 100 µM (inactive) | > 100 µM (inactive) | > 100 µM (inactive) | > 100 µM (inactive) | – | > 100 µM (inactive) | – | – | > 100 µM (inactive) | – | > 100 µM (inactive) | > 100 µM (inactive) | – | > 100 µM (inactive) | > 100 µM (inactive) | > 100 µM (inactive) | > 100 µM (inactive) | – |
| CCNC1=Nc2ccccc2-n2c(nn3nc4ccccc4c23)N1CC | > 100 µM (inactive) | > 100 µM (inactive) | > 100 µM (inactive) | > 100 µM (inactive) | – | – | – | – | – | 29.6 µM (inactive) | > 100 µM (inactive) | > 100 µM (inactive) | > 100 µM (inactive) | – | 82.6 µM (inactive) | 34.8 µM (inactive) | > 100 µM (inactive) | 37.3 µM (inactive) | – |
| Clc1cccc(Cl)c1C1ON=C(c2ccccc2)N1C12CC3CC(CC(C3)C1)C2 (stereo not drawn) | 10.9 µM (inactive) | 25.2 µM (inactive) | 82 µM (inactive) | 43.3 µM (inactive) | 40.9 µM (inactive) | 10.1 µM (inactive) | 98.2 µM (inactive) | – | 37.6 µM (inactive) | 1.63 µM (inactive) | 37.4 µM (inactive) | 11.2 µM (inactive) | 56.4 µM (inactive) | 76.9 µM (inactive) | 29.1 µM (inactive) | 5.35 µM (inactive) | 25.3 µM (inactive) | > 100 µM (inactive) | 15.2 µM (inactive) |
| C[C@@H]1CC2(C[C@@H](C)C3[C@@H](CC4(C)CCCC5C6=CC(O)(CC[C@]34C)OC6=CC(=O)OC5(C)C)O2)OC1=O (stereo partly drawn) | > 100 µM (inactive) | > 100 µM (inactive) | – | > 100 µM (inactive) | – | – | > 100 µM (inactive) | – | – | > 100 µM (inactive) | – | > 100 µM (inactive) | – | – | – | > 100 µM (inactive) | > 100 µM (inactive) | – | – |
| C/C(=N\N=C(/S)N1CC2CCC(CC2)C1)c1ccncn1 | < 0.01 µM (active) | < 0.01 µM (active) | 0.133 µM (active) | < 0.01 µM (active) | < 0.01 µM (active) | – | < 0.01 µM (active) | 0.0512 µM (active) | 0.189 µM (active) | < 0.01 µM (active) | < 0.01 µM (active) | < 0.01 µM (active) | 0.291 µM (active) | 0.309 µM (active) | < 0.01 µM (active) | < 0.01 µM (active) | 0.741 µM (active) | < 0.0179 µM (active) | < 0.01 µM (active) |
| COC[C@@H]1Cc2cc(OC)c3c(c2[C@H](c2ccc(OC)c(OC)c2)[C@H]1COC)OCO3 [HYPOPHYLLANTHIN] | 99.8 µM (inactive) | 69.8 µM (inactive) | 51.6 µM (inactive) | – | – | – | > 100 µM (inactive) | – | – | > 100 µM (inactive) | > 100 µM (inactive) | 93.8 µM (inactive) | > 100 µM (inactive) | – | > 100 µM (inactive) | > 100 µM (inactive) | – | 57.5 µM (inactive) | – |
